Assay results: patent US11952363B2, “Piperazine compounds for the treatment of autoimmune disease” (Hoffmann-La Roche Inc., priority 2018, dated 2024)

Columns and labels:
[1] = Human microsomal stability assay; format: in vitro ADME; details: human liver microsomes 0.5 mg/mL, 1 μM test compound, 37° C., pH 7.4
Method: Human liver microsomes (Cat.NO.: 452117, Corning, USA) were preincubated with test compound for 10 minutes at 37° C. in 100 mM potassium phosphate buffer, pH 7.4. The reactions were initiated by adding NADPH regenerating system. The final incubation mixtures contained 1 μM test compound, 0.5 mg/mL liver microsomal protein, 1 mM MgCl2, 1 mM NADP, 1 unit/mL isocitric dehydrogenase and 6 mM isocitric acid in 100 mM potassium phosphate buffer, pH 7.4. After incubation times of 0, 3, 6, 9, 15 and 30 minutes at 37° C., 300 μL of cold ACN (including internal standard) was added to 100 μL incubation mixture to terminate the reaction. Following precipitation and centrifugation, 100 uL supernatant will be taken out and added 300 uL water. The amount of compound remaining in the samples was determined by LC-MS/MS. Controls of no NADPH regenerating system at zero and 30 minutes were also prepared and analyzed.

[2] = target: T1, human TLR9 (Homo sapiens, UniProt Q9NR96); assay: HEK293-Blue-hTLR-9 cells assay (SEAP reporter, ODN2006 stimulation); format: cell-based; details: HEK293-Blue-hTLR9 cells, ODN2006 ligand, 20 hrs incubation; read-out: HEK/hTLR9 IC50
T1 sequence (Q9NR96 26-1032): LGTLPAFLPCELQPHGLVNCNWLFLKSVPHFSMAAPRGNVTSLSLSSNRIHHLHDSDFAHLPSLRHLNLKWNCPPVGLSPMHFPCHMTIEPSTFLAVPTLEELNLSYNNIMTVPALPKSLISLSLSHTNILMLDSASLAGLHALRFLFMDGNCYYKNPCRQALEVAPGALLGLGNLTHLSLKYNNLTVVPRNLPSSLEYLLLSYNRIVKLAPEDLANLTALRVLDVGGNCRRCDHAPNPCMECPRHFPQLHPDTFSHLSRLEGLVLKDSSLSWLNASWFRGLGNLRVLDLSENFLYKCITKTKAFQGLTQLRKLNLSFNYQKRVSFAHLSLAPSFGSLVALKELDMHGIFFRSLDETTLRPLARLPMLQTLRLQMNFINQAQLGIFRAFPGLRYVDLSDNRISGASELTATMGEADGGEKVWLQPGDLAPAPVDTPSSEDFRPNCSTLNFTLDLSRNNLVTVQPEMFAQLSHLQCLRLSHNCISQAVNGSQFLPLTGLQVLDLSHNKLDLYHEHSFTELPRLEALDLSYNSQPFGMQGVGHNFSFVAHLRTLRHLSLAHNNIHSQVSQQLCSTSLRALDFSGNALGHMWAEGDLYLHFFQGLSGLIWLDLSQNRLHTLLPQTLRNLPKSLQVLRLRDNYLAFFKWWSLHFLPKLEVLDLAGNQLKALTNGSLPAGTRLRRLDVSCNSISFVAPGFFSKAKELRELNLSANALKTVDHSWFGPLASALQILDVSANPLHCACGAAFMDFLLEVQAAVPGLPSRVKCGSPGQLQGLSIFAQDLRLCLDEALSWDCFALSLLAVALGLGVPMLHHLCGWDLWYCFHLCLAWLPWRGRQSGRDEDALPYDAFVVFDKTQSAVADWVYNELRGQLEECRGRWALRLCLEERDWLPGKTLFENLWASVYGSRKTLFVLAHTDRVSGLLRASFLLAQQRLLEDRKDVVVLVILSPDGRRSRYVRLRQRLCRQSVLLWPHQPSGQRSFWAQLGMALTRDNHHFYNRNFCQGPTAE
Method: The following tests were carried out in order to determine the activity of the compounds of formula (I) in HEK293-Blue-hTLR-7/8/9 cells assay.
A stable HEK293-Blue-hTLR-9 cell line was purchased from InvivoGen (Cat.#: hkb-htlr9, San Diego, California, USA). These cells were originally designed for studying the stimulation of human TLR9 by monitoring the activation of NF-κB. A SEAP (secreted embryonic alkaline phosphatase) reporter gene was placed under the control of the IFN-β minimal promoter fused to five NF-κB and. AP-1-binding sites. The SEAP was induced by activating NF-κB and AP-1 via stimulating HEK-Blue hTLR9 cells with TLR9 ligands. Therefore the reporter expression was declined by TLR9 antagonist under the stimulation of a ligand, such as ODN2006 (Cat.#: tlr1-2006-1, Invivogen, San Diego, California, USA), for incubation of 20 his. The cell culture supernatant SEAP reporter activity was determined using QUANTI-Blue™ kit (Cat.#: rep-qb1, Invivogen, San Diego, California, USA) at a wavelength of 640 nm, a detection medium that turns purple or blue in the presence of alkaline phosphatase.
HEK293-Blue-hTLR9 cells were incubated at a density of 250,000-450,000 cells/mL in a volume of 170 μL in a 96-well plate in Dulbecco's Modified Eagle's medium (DMEM) containing 4.5 g/L glucose, 50 U/mL penicillin, […], […], 2 mM L-glutamine, 10% (v/v) heat-inactivated fetal bovine serum with addition of 20 μL test compound in a serial dilution in the presence of final DMSO at 1% and 10 p L of 20uM ODN2006 in above DMEM, perform incubation under 37° C. in a CO2 incubator for 20 hrs. Then 20 μL of the supernatant from each well was incubated with 180 μL Quanti-blue substrate solution at 37° C. for 2 h and the absorbance was read at 620˜655 nm using a spectrophotometer. The signaling pathway that TLR9 activation leads to downstream NF-κB activation has been widely accepted, and therefore similar reporter assay was modified for evaluating TLR9 antagonist.

SMILES | Clearance of Human microsome [1] [mL/min/kg] | IC50 [2] [nM]
C[C@@H]1CN(c2ccc(C#N)c3ncccc23)C[C@H](C)N1Cc1ccc(N2CCNCC2)cc1 [Example 1, 5-[(3R,5S)-3,5-Dimethyl-4-[(4-piperazin-1-ylphenyl)methyl]piperazin-1-yl]quinoline-8-carbonitrile] | 11.2 | 39
C[C@@H]1CN(c2ccc(C#N)c3ncccc23)C[C@@H](C)N1Cc1ccc(N2CCNCC2)cc1 [Example 2] | 8.0 | 65
C[C@@H]1CN(c2ccc(C#N)c3ncccc23)C[C@H](C)N1Cc1ccc(N2CCNCC2)nc1 [Example 3, 5-[(3R,5S)-3,5-Dimethyl-4-[(6-piperazin-1-yl-3-pyridyl)methyl]piperazin-1-yl]quinoline-8-carbonitrile] | 11.6 | 93
C[C@@H]1CN(c2ccc(C#N)c3ncccc23)C[C@H](C)N1Cc1ncc(N2CCNCC2)cn1 [Example 4, 5-[(3S,5R)-3,5-Dimethyl-4-[(5-piperazin-1-ylpyrimidin-2-yl)methyl]piperazin-1-yl]quinoline-8-carbonitrile] | 10.4 | 137
C[C@@H]1CN(c2ccc(C#N)c3ncccc23)C[C@H](C)N1Cc1ccc(N2CCNCC2)cn1 [Example 5, 5-[(3S,5R)-3,5-Dimethyl-4-[(5-piperazin-1-yl-2-pyridyl)methyl]piperazin-1-yl]quinoline-8-carbonitrile] | – | 84
C[C@@H]1CN(c2ccc(C#N)c3ncccc23)C[C@H](C)N1Cc1ncc(N2CCN(C(=O)CN(C)C)CC2)cn1 [Example 6, 5-[(3S,5R)-4-[[5-[4-[2-(Dimethylamino)acetyl]piperazin-1-yl]pyrimidin-2-yl]methyl]-3,5-dimethyl-piperazin-1-yl]quinoline-8-carbonitrile] | 10.5 | 139
C[C@@H]1CN(c2ccc(C#N)c3ncccc23)C[C@H](C)N1Cc1ccc(N2CCN(C)CC2)cn1 [Example 7, 5-[(3S,5R)-3,5-dimethyl-4-[[5-(4-methylpiperazin-1-yl)-2-pyridyl]methyl]piperazin-1-yl]quinoline-8-carbonitrile] | – | 120
C[C@@H]1CN(c2ccc(C#N)c3ncccc23)C[C@H](C)N1Cc1ccc(N2CC3CNCC(C2)O3)cn1 [Example 8, 5-[(3S,5R)-3,5-Dimethyl-4-[[5-(9-oxa-3,7-diazabicyclo[3.3.1]nonan-3-yl)-2-pyridyl]methyl]piperazin-1-yl]quinoline-8-carbonitrile] | 12.4 | 73
C[C@@H]1CN(c2ccc(C#N)c3ncccc23)C[C@H](C)N1Cc1ccc(N[C@@H]2CNC[C@@H]2F)cn1 [Example 9, 5-[(3R,5S)-3,5-Dimethyl-4-[[5-[[(3R,4S)-4-fluoropyrrolidin-3-yl]amino]-2-pyridyl]methyl]piperazin-1-yl]quinoline-8-carbonitrile] | 12.8 | 47
C[C@@H]1CN(c2ccc(C#N)c3ncccc23)C[C@H](C)N1Cc1ccc(N2CCN(C(=O)C3CCCN3)CC2)cn1 (stereo partly drawn) [Example 10, 5-[(3R,5S)-3,5-Dimethyl-4-[[5-[4-(pyrrolidine-2-carbonyl)piperazin-1-yl]-2-pyridyl]methyl]piperazin-1-yl]quinoline-8-carbonitrile] | – | 41
C[C@@H]1CN(c2ccc(C#N)c3ncccc23)C[C@H](C)N1Cc1ccc(N2CCN(C(=O)CN(C)C)CC2)cn1 [Example 11, 5-[(3S,5R)-4-[[5-[4-[2-(Dimethylamino)acetyl]piperazin-1-yl]-2-pyridyl]methyl]-3,5-dimethyl-piperazin-1-yl]quinoline-8-carbonitrile] | – | 96
C[C@@H]1CN(c2ccc(C#N)c3ncccc23)C[C@H](C)N1Cc1ccc(N2CCNCC2CO)cc1 (stereo partly drawn) [Example 12, 5-[(3R,5S)-4-[[4-[2-(Hydroxymethyl)piperazin-1-yl]phenyl]methyl]-3,5-dimethyl-piperazin-1-yl]quinoline-8-carbonitrile] | 10.1 | 60
C[C@@H]1CN(c2ccc(C#N)c3ncccc23)C[C@H](C)N1CC(=O)N1CCc2nc(N3CCNCC3)ccc2C1 [Example 13, 5-[(3R,5S)-3,5-Dimethyl-4-[2-oxo-2-(2-piperazin-1-yl-7,8-dihydro-5H-1,6-naphthyridin-6-yl)ethyl]piperazin-1-yl]quinoline-8-carbonitrile] | – | 132
C[C@@H]1CN(c2ccc(C#N)c3ncccc23)C[C@H](C)N1CC(=O)N1CCc2cc(N3CCNCC3)ccc2C1 [Example 14, 5-[(3R,5S)-3,5-Dimethyl-4-[2-oxo-2-(6-piperazin-1-yl-3,4-dihyrdo-1H-isoquinolin-2-yl)ethyl]piperazin-1-yl]quinoline-8-carbonitrile] | 12.9 | 116
C[C@@H]1CN(c2ccc(C#N)c3ncccc23)C[C@H](C)N1CC(=O)N1CCc2ccc(N3CCNCC3)cc2C1 [Example 15, 5-[(3R,5S)-3,5-dimethyl-4-[2-pxp-2-(7-piperazin-1-yl-3,4-dihydro-1H-isoquinolin-2-yl)ethyl]piperazin-1-yl]quinoline-8-carbonitrile] | – | 94
C[C@@H]1CN(c2ccc(C#N)c3ncccc23)C[C@H](C)N1CC(=O)N1Cc2ccc(N3CCNCC3)cc2C1 [Example 16, 5-[(3R,5S)-3,5-Dimethyl-4-[2-oxo-2-(5-piperazin-1-ylisoindolin-2-yl)ethyl]piperazin-1-yl]quinoline-8-carbonitrile] | 9.4 | 75
CC1CN(c2ccc(C#N)c3ncccc23)CCN1CC(=O)Nc1ccc(N2CCNCC2)cc1 (centres unmarked) [Example 17, 2-[4-(8-Cyano-5-quinolyl)-2-methyl-piperazin-1-yl]-N-(4-piperazin-1-ylpheny)acetamide] | 6.9 | 103
CC1CN(c2ccc(C#N)c3ncccc23)CCN1CC(=O)Nc1ccc2c(c1)CCNC2 (centres unmarked) [Example 18, 2-[4-(8-Cyano-5-quinolyl)-2-methyl-piperazin-1yl]-N-(1,2,3,4-tetrahydroisoquinolin-6-yl)acetamide] | 6.3 | 119
CC1CN(c2ccc(C#N)c3ncccc23)CCN1CC(=O)N1CCC(C2CCN(C)CC2)CC1 (centres unmarked) [Example 19, 5-[3-methyl-4-[2-[4-(1-methyl-4-piperidyl)-1-piperidyl]-2-oxo-ethyl]piperazin-1-yl]quinoline-8-carbonitrile] | 6.7 | 116
